Where two headings read alike, the source gives them in different places.
Key:
Ps. aeruginosa AK 109 = experiment: in vitro antibacterial activity, agar plate dilution method (MIC); format: cell-based, Pseudomonas aeruginosa; conditions: Pseudomonas aeruginosa, AK109, 16 h
Outline: (§1)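 Plate dilution on Mueller Hinton agar with various antibiotic concentrations. Inoculum size was 10^6 CFU/ml, incubation 16 hours at 37° C.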

Ps. aeruginosa AKR17 = experiment: as above; format: cell-based, Pseudomonas aeruginosa; conditions: Pseudomonas aeruginosa, 10^6 CFU/ml
Outline: as §1

Ps. aeruginosa IF03445 = experiment: as above; format: cell-based, Pseudomonas aeruginosa; conditions: Pseudomonas aeruginosa, 10^6 CFU/ml
Outline: as §1

Ps. cepacia 23 = experiment: as above; format: cell-based, Pseudomonas cepacia; conditions: read-out: Minimum Inhibitory Concentration (MIC)
Outline: as §1

E. coli CSH2 (RK1) = experiment: microbe, parasite or virus in culture; format: cell-based; conditions: Escherichia coli, 16 h, read-out: Minimum Inhibitory Concentration (MIC), *E. coli CSH2 (RK1), lactamase-producing strain; 10^6 CFU/ml
Outline: as §1

E. coli CSH(RE45) = experiment: microbe, parasite or virus in culture; format: cell-based; conditions: Escherichia coli, 16 h, read-out: Minimum Inhibitory Concentration (MIC), *E. coli CSH(RE45), lactamase-producing strain; 10^6 CFU/ml
Outline: as §1

S. marcescens IAM 1184 = experiment: in vitro antibacterial activity, agar plate dilution method (MIC); format: cell-based; conditions: Serratia marcescens, IAM1184, 16 h, read-out: Minimum Inhibitory Concentration (MIC)
Outline: as §1

K. pneumoniae No. 42 = experiment: as above; format: cell-based; conditions: Klebsiella pneumoniae, 10^6 CFU/ml
Outline: as §1

K. pneumoniae PCI-602 = experiment: as above; format: cell-based; conditions: Klebsiella pneumoniae, PCI602, 16 h, 10^6 CFU/ml
Outline: as §1

E. coli GN5482 = experiment: as above; format: cell-based; conditions: Escherichia coli, GN5482, 16 h
Outline: as §1

P. vulgaris HX-19 = experiment: as above; format: cell-based; conditions: Proteus vulgaris, HX19, 16 h, read-out: Minimum Inhibitory Concentration (MIC)
Outline: as §1

S. aureus 209P NIHJ-JC1 = experiment: as above; format: cell-based; conditions: Staphylococcus aureus, 16 h
Outline: as §1

E. cloacae Nek 39 = experiment: as above; format: cell-based; conditions: Enterobacter cloacae, NEK39, 16 h, 10^6 CFU/ml
Outline: as §1

P. vulgaris No. 33 = experiment: as above; format: cell-based; conditions: Proteus vulgaris, NO.33, 16 h, read-out: Minimum Inhibitory Concentration (MIC), *P. vulgaris No. 33, lactamase-producing strain; 10^6 CFU/ml
Outline: as §1

K. oxytoca GN10650 = experiment: as above; format: cell-based; conditions: Klebsiella oxytoca, GN10650, 16 h, read-out: Minimum Inhibitory Concentration (MIC), *K. oxytoca GN10650, lactamase-producing strain; 10^6 CFU/ml
Outline: as §1

S. marcescens No. 16-2 = experiment: as above; format: cell-based; conditions: Serratia marcescens, NO.162, 16 h
Outline: as §1

E. cloacae 963 = experiment: as above; format: cell-based; conditions: 10^6 CFU/ml
Outline: as §1

M. morganii GN5407 = experiment: as above; format: cell-based; conditions: Morganella morganii, GN5407, 16 h, read-out: Minimum Inhibitory Concentration (MIC), *M. morganii GN5407, lactamase-producing strain; 10^6 CFU/ml
Outline: as §1

E. coli NIHJ JC2 = experiment: as above; format: cell-based; conditions: Escherichia coli, NIHJJC2, 16 h, read-out: Minimum Inhibitory Concentration (MIC), E. coli NIHJ JC2, 10^6 CFU/ml, 37° C.
Outline: as §1

A. calcoaceticus No. 4 = experiment: as above; format: cell-based, Acinetobacter calcoaceticus; conditions: Acinetobacter calcoaceticus, NO.4, 16 h, 10^6 CFU/ml
Outline: as §1

[1] = 16 h, Ps. aeruginosa AKR17, read-out: Minimum Inhibitory Concentration (MIC)
[2] = IF03445, 16 h, read-out: Minimum Inhibitory Concentration (MIC), Ps. aeruginosa IF03445
[3] = Burkholderia cepacia, 16 h, Ps. cepacia 23, 10^6 CFU/ml
[4] = S. marcescens IAM 1184, 10^6 CFU/ml
[5] = NO.42, 16 h, read-out: Minimum Inhibitory Concentration (MIC), *K. pneumoniae No. 42, lactamase-producing strain
[6] = read-out: Minimum Inhibitory Concentration (MIC), K. pneumoniae PCI-602
[7] = read-out: Minimum Inhibitory Concentration (MIC)
[8] = read-out: Minimum Inhibitory Concentration (MIC), *E. cloacae Nek 39, lactamase-producing strain
[9] = read-out: Minimum Inhibitory Concentration (MIC), *S. marcescens No. 16-2, lactamase-producing strain, 10^6 CFU/ml
[10] = Enterobacter cloacae, 16 h, E. cloacae 963, read-out: Minimum Inhibitory Concentration (MIC)
[11] = read-out: Minimum Inhibitory Concentration (MIC), A. calcoaceticus No. 4
[12] = read-out: Minimum Inhibitory Concentration (MIC), *E. coli GN5482, lactamase-producing strain, 10^6 CFU/ml
[13] = read-out: Minimum Inhibitory Concentration (MIC), S. aureus 209P NIHJ-JC1, 10^6 CFU/ml, 37° C., 16 hours
[14] = Ps. aeruginosa AK 109, 10^6 CFU/ml, read-out: Minimum Inhibitory Concentration (MIC)
[15] = 16 h, Ps. aeruginosa IF03445, read-out: Minimum Inhibitory Concentration (MIC)
[16] = K. pneumoniae PCI-602, read-out: Minimum Inhibitory Concentration (MIC)
[17] = Enterobacter cloacae, 963, 16 h, read-out: Minimum Inhibitory Concentration (MIC), E. cloacae 963
[18] = A. calcoaceticus No. 4, read-out: Minimum Inhibitory Concentration (MIC)

Structure (SMILES)	MIC (Ps. aeruginosa AKR17; [1])	MIC (Ps. aeruginosa IF03445; [2])	MIC (Ps. cepacia 23; [3])	MIC (E. coli CSH2 (RK1))	MIC (E. coli CSH(RE45))	MIC (S. marcescens IAM 1184; [4])	MIC (K. pneumoniae No. 42; [5])	MIC (K. pneumoniae PCI-602; [6])	MIC (E. coli GN5482; [7])	MIC (S. aureus 209P NIHJ-JC1; [7])	MIC (E. cloacae Nek 39; [8])	MIC (P. vulgaris No. 33)	MIC (K. oxytoca GN10650)	MIC (S. marcescens No. 16-2; [9])	MIC (M. morganii GN5407)	MIC (E. coli NIHJ JC2)	MIC (A. calcoaceticus No. 4; [11])	MIC (P. vulgaris HX-19; P. vulgaris HX-19, 10^6 CFU/ml)	MIC (Ps. aeruginosa AK 109; [14])	MIC (E. cloacae 963; [17])	also measured
CCO/N=C(\C(=O)N[C@@H]1C(=O)N2C(C(=O)O)=C(CSc3ncc(-c4ccc(OC(C)=O)c(OC(C)=O)c4)o3)CS[C@H]12)c1csc(N)n1 [compound 67, disodium 3-[5-(3,4-diacetoxyphenyl)-oxazol-2-yl]thiomethyl-7β-[2-(2-aminothiazol-4)-2-ethoxyiminoacetamido]-3-cephem-4-carboxylate]	50 µg/mL	1.56 µg/mL	0.05 µg/mL	0.0125 µg/mL	0.1 µg/mL	0.1 µg/mL	0.1 µg/mL	< 0.006 µg/mL	3.12 µg/mL	3.12 µg/mL	0.39 µg/mL	0.025 µg/mL	1.56 µg/mL	6.25 µg/mL	0.05 µg/mL	0.39 µg/mL	0.39 µg/mL				MIC (Ps. aeruginosa AK 109; read-out: Minimum Inhibitory Concentration (MIC), Ps. aeruginosa AK 109, 10^6 CFU/ml): 1.56 µg/mL; MIC (P. vulgaris HX-19): 0.0125 µg/mL; MIC (E. cloacae 963; [10]): 0.1 µg/mL
CC(C)ON=C(C(=O)NC1C(=O)N2C(C(=O)O)=C(CSc3nc(-c4ccc(O)c(O)c4)cs3)CSC12)c1csc(N)n1 (stereo not drawn) [Ex. 41, sodium 7β-[2-(2-aminothiazol-4-yl)-2-isooropoxyiminoacetamido]-3-[4-(3,4-dihydroxyphenyl)-thiazol-2-yl]thiomethyl-3-cechem-4-carboxylate]	50 µg/mL	0.78 µg/mL	0.05 µg/mL	0.0125 µg/mL	< 0.006 µg/mL	0.05 µg/mL	0.1 µg/mL	< 0.006 µg/mL			0.2 µg/mL	0.05 µg/mL	0.39 µg/mL	6.25 µg/mL	0.05 µg/mL	0.2 µg/mL	0.39 µg/mL	0.025 µg/mL			MIC (Ps. aeruginosa AK 109; [7]): 0.39 µg/mL; MIC (E. coli GN5482; [12]): 0.78 µg/mL; MIC (S. aureus 209P NIHJ-JC1; [13]): 1.56 µg/mL; MIC (E. cloacae 963; [10]): 0.1 µg/mL
CO/N=C(\C(=O)N[C@@H]1C(=O)N2C(C(=O)O)=C(CSc3ncc(-c4ccccc4)o3)CS[C@H]12)c1csc(N)n1 [compound 21, sodium 7β-[2-(2-aminothiazol-4-yl)-2methoxyiminoacetamido]-3-(5-phenyloxazol-2-yl)thiomethyl-3-cephem-4-carboxylate, reference compound]	> 100 µg/mL			0.78 µg/mL	1.56 µg/mL		3.12 µg/mL			0.39 µg/mL	6.25 µg/mL	0.78 µg/mL	12.5 µg/mL	6.25 µg/mL	1.56 µg/mL	1.56 µg/mL	12.5 µg/mL	0.0125 µg/mL	50 µg/mL	3.12 µg/mL	MIC (Ps. aeruginosa IF03445; [15]): 50 µg/mL; MIC (Ps. cepacia 23; Burkholderia cepacia, 23, 16 h): 0.78 µg/mL; MIC (S. marcescens IAM 1184): 0.78 µg/mL; MIC (K. pneumoniae PCI-602; [16]): 0.0125 µg/mL; MIC (E. coli GN5482; [12]): 0.78 µg/mL
CC(C)(O/N=C(\C(=O)N[C@@H]1C(=O)N2C(C(=O)O)=C(CSc3ncc(-c4ccc(O)cc4)o3)CS[C@H]12)c1csc(N)n1)C(=O)O [compound 24, disodium 7β-[2-(2-aminothiazol-4-yl)-2-(1-carboxylate-1-methylethoxyimino)acetamido]-3-[5-(4-hydroxyphenyl)oxazol-2-yl]thiomethyl-3-cephem-4-carboxylate, reference compound]	> 100 µg/mL			3.12 µg/mL	3.12 µg/mL		12.5 µg/mL		3.12 µg/mL			0.39 µg/mL	6.25 µg/mL		6.25 µg/mL	12.5 µg/mL		< 0.006 µg/mL	25 µg/mL	12.5 µg/mL	MIC (Ps. aeruginosa IF03445; [15]): 25 µg/mL; MIC (Ps. cepacia 23; Burkholderia cepacia, 23, 16 h): 6.25 µg/mL; MIC (S. marcescens IAM 1184): 3.12 µg/mL; MIC (K. pneumoniae PCI-602; [16]): 0.2 µg/mL; MIC (S. aureus 209P NIHJ-JC1; [13]): 6.25 µg/mL; MIC (E. cloacae Nek 39; *E. cloacae Nek 39, lactamase-producing strain, read-out: Minimum Inhibitory Concentration (MIC)): 25 µg/mL; MIC (S. marcescens No. 16-2; *S. marcescens No. 16-2, lactamase-producing strain, 10^6 CFU/ml, read-out: Minimum Inhibitory Concentration (MIC)): 25 µg/mL; MIC (A. calcoaceticus No. 4; [18]): > 100 µg/mL
C#CCO/N=C(\C(=O)N[C@@H]1C(=O)N2C(C(=O)O)=C(CSc3nnc(-c4ccc(O)c(O)c4)s3)CS[C@H]12)c1csc(N)n1 [Ex. 31, sodium 7β-[2-(2-aminothiazol-4-yl)-2-proparqyloxyiminoacetamido]-3-[5-(3,4-dihvdroxyphenyl)-1,3,4-thiadiazol-2-yl]thiomethyl-3-cephem-4-carboxylate]	100 µg/mL	0.78 µg/mL		< 0.006 µg/mL	0.0125 µg/mL			< 0.006 µg/mL	0.39 µg/mL		0.2 µg/mL	0.025 µg/mL	0.78 µg/mL		0.0125 µg/mL	0.1 µg/mL	0.1 µg/mL	< 0.006 µg/mL	0.2 µg/mL	0.0125 µg/mL	MIC (Ps. cepacia 23; Burkholderia cepacia, 23, 16 h): 0.0125 µg/mL; MIC (S. marcescens IAM 1184): 0.0125 µg/mL; MIC (K. pneumoniae No. 42; 16 h, *K. pneumoniae No. 42, lactamase-producing strain, read-out: Minimum Inhibitory Concentration (MIC)): < 0.006 µg/mL; MIC (S. aureus 209P NIHJ-JC1; [13]): 0.78 µg/mL; MIC (S. marcescens No. 16-2; [7]): 0.39 µg/mL
Nc1nc(/C(=N/OC2(C(=O)O)CC2)C(=O)N[C@@H]2C(=O)N3C(C(=O)O)=C(CSc4nnc(-c5ccc(O)c(O)c5)s4)CS[C@H]23)cs1 [Ex. 35, disodium 7β-[2-(2-aminothiazol-4-yl)-2-(1-carboxylate-1-cyclooropoxyimino)acetamido]-3-[5-(3,4-dihydroxyphenyl)-1,3,4-thiadiazol-2-yl]thiomethyl-3-cephem-4-carboxylate]		0.39 µg/mL	< 0.006 µg/mL	< 0.006 µg/mL	< 0.006 µg/mL	0.025 µg/mL	0.0125 µg/mL	< 0.006 µg/mL	0.39 µg/mL	12.5 µg/mL	0.05 µg/mL	0.0125 µg/mL	0.025 µg/mL		0.05 µg/mL	0.2 µg/mL		< 0.006 µg/mL	0.2 µg/mL	0.05 µg/mL	MIC (Ps. aeruginosa AKR17; AKR17, 16 h, read-out: Minimum Inhibitory Concentration (MIC), Ps. aeruginosa AKR17): 1.56 µg/mL; MIC (S. marcescens No. 16-2; [7]): 0.39 µg/mL; MIC (A. calcoaceticus No. 4; [18]): 0.05 µg/mL

Source: patent US5061794A, “Cephalosporin derivatives, and antibacterial agents” (priority 1986, dated 1991)
